Test results as given in ChEMBL document CHEMBL4316625, “Double prodrugs of a fosmidomycin surrogate as antimalarial and antitubercular agents” (Bioorg Med Chem Lett, 2019).
Values after ≈ are worked out from the molar mass of the structure shown.

How the values were obtained:
[1] = Cytotoxicity in human MRC5 cells assessed as reduction in cell viability incubated for 24 hrs by resazurin-based cytotoxicity assay
[2] = test system: Mycobacterium tuberculosis; assay: Antitubercular activity against Mycobacterium tuberculosis H37Rv reduction in bacterial multiplication incubated for 7 days by luminometric assay; assay type: functional; conditions: 168 h
Plasmodium falciparum = assay: Antiplasmodial activity against Plasmodium falciparum K1 infected in human erythrocytes assessed as reduction in parasite multiplication incubated for 72 hrs by Malstat method; assay type: functional, organism-based; conditions: K1, 72 h
[3] = Oral bioavailability in healthy human at 500 mg; assay type: ADME, organism-based; conditions: in vivo

Row | Compound | CC50 at 24 h [1] | MIC [2] | IC50 (Plasmodium falciparum) | bioavailability [3]
1 | CN(OCc1ccc([N+](=O)[O-])o1)C(=O)CCCP(=O)(OCOC(=O)C(C)(C)C)OCOC(=O)C(C)(C)C | 26.3 µM | 12.5 µM (≈ 6.88 µg/mL) | 4.42 µM | 
2 | CCNC(=O)ON(C)C(=O)CCCP(=O)(OCOC(=O)C(C)(C)C)OCOC(=O)C(C)(C)C | 25.9 µM | > 50 µM | 2.52 µM | 
3 | CN(OC(=O)c1ccccc1)C(=O)CCCP(=O)(OCOC(=O)C(C)(C)C)OCOC(=O)C(C)(C)C | > 64 µM | 50 µM (≈ 26.5 µg/mL) | 1.08 µM | 
4 | CN(OC(=O)Nc1ccccc1)C(=O)CCCP(=O)(OCOC(=O)C(C)(C)C)OCOC(=O)C(C)(C)C | 33.4 µM |  | 3.34 µM | 
5 | CN(OC(=O)OCc1ccccc1)C(=O)CCCP(=O)(OCOC(=O)C(C)(C)C)OCOC(=O)C(C)(C)C | > 42 µM | > 50 µM | > 36 µM | 
6 | CN(OC(=O)NCc1ccccc1)C(=O)CCCP(=O)(OCOC(=O)C(C)(C)C)OCOC(=O)C(C)(C)C | 27.9 µM | > 50 µM | 0.64 µM | 
7 | O=CN(O)CCCP(=O)([O-])O.[Na+] [FOSMIDOMYCIN SODIUM] | > 64 µM | > 64 µM |  | 20 to 40%
8 | CN(OCc1ccc([N+](=O)[O-])cc1)C(=O)CCCP(=O)(OCOC(=O)C(C)(C)C)OCOC(=O)C(C)(C)C | 26.5 µM | > 50 µM | 8.79 µM | 
9 | CCCCCCCCC(=O)ON(C)C(=O)CCCP(=O)(OCOC(=O)C(C)(C)C)OCOC(=O)C(C)(C)C | > 64 µM | 50 µM (≈ 28.3 µg/mL) | 1.41 µM | 
10 | CN(OCc1ccc([N+](=O)[O-])s1)C(=O)CCCP(=O)(OCOC(=O)C(C)(C)C)OCOC(=O)C(C)(C)C | 20.5 µM | 12.5 µM (≈ 7.08 µg/mL) | 4.69 µM | 
11 | CCCCCCCCC(=O)Oc1ccc(CON(C)C(=O)CCCP(=O)(OCOC(=O)C(C)(C)C)OCOC(=O)C(C)(C)C)cc1 | > 64 µM | 50 µM (≈ 33.6 µg/mL) | 19 µM | 
12 | CN(O)C(=O)CCCP(=O)(OCOC(=O)C(C)(C)C)OCOC(=O)C(C)(C)C | > 64 µM | > 50 µM |  | 
13 | CC(=O)ON(C)C(=O)CCCP(=O)(OCOC(=O)C(C)(C)C)OCOC(=O)C(C)(C)C | > 64 µM |  | 1.34 µM | 
